# Reference: patent US10143686B2, “Oxidosqualene cyclase as a protein target for anticancer therapeutics” (The Curators of the University of Missouri, priority 2010, dated 2018)
# Where a name gives a salt, the structure may show the parent alone. Read-outs that look alike come from different tables or passages of the source.
# Legend:
# [1] = test system: ZR-75 breast cancer cells; test: SRB cell viability assay, ZR-75; assay type: cell-based; conditions: ZR75, ZR-75, Breast (ER+ PR+)
# Experimental: (§1) The effect of OSC inhibition was evaluated in additional cancer cell lines as well. Cancer cell lines may be purchased from ATCC (Manassas, Va.). The SRB assay has been employed for determination of the inhibitory effects of RO 48-8071 on growth of different cancer cells. Cells were seeded into 96-well plates and incubated overnight at 37° C. with 5% CO2. The culture medium was removed after 24 hours, and cells were washed with DMEM/F12 medium and then treated with various concentrations of RO 48-8071 in 5% FBS culture medium for 24 and 48 hours. Surviving or adherent cells were fixed in situ by withdrawing the growth medium, adding 100 μl PBS and 100 μl 50% trichloroacetic acid and then incubating at 4° C. for one hour. Cells were washed with ice-cold water, dried at room temperature (RT), and then stained with 50 μl 4% SRB for eight minutes at RT. Unbound dye was removed by washing with cold 1% acetic acid for five times, and plates were dried at RT. Bound stain was solubilized with 150 μl 10 mM Tris buffer and absorbance of samples was read at 520 nm with a SpecTRA MAX 190 microplate reader (Molecular Devices, Sunnyvale, Calif.). Six wells were used for each concentration, and each experiment was performed two to three times.
# Effect of RO 48-8071 on estrogen, progesterone, and HER-2/neu receptors positive breast cancer cell line HCC-1428 and ZR-75 viability. […]
# DLD-1 colon cancer cells = test: SRB cell viability assay, DLD-1; assay type: cell-based; conditions: Homo sapiens
# Experimental: as §1
# Effect of RO 48-8071 on colon cancer cell line DLD-1 viability. […] The culture mediums employed 10% FBS RPMI-1640 for culture and 5% FBS RPMI-1640 for treatment.
# A549 lung cancer cells = test: SRB cell viability assay, A549; assay type: cell-based; conditions: Homo sapiens
# Experimental: as §1
# Effect of RO 48-8071 on lung cancer cell line A549 viability. […] The culture mediums employed 10% FBS F-12K for culture and 5% FBS F-12K for treatment.
# [2] = test system: SK-OV-3 ovarian cancer cells; test: SRB cell viability assay, SK-OV-3; assay type: cell-based; conditions: Homo sapiens, SK-OV-3, Ovary
# Experimental: as §1
# Effect of RO 48-8071 on ovarian cancer cell line SK-OV-3 viability. […]
# [3] = test system: T47-D breast cancer cells; test: SRB cell viability assay, T47-D; assay type: cell-based; conditions: for IC50: Homo sapiens, T47D, Breast (ER+ PR+)
# Experimental: The sulforhodamine B (SRB) assay was employed to evaluate the effect of OSC inhibitor Ro 48-8071 on viability of breast cancer and normal mammary gland cells with slight modification of the original procedure established at NCI. Accordingly, the cells were seeded in 96-well plates in 100 μl culture medium and incubated overnight at 37° C. with 5% CO2. […] The surviving or adherent cells were fixed in situ by withdrawing the growth medium and adding 100 μl of PBS and 100 μl of 50% cold trichloroacetic acid and then incubating at 4° C. for 1 h. The surviving cells were washed with ice-water, dried at room temperature (RT), and then stained with 50 μl 4% SRB for 8 min at RT. Unbound dye was removed by washing 5 times with cold 1% acetic acid, and the plates were dried at RT. Bound stain was solubilized with 150 μl 10 mM Tris buffer, and absorbance of samples were measured at 520 nm with a SpecTRA MAX 190 microplate reader (Sunnyvale, Calif.). In these experiments on BT-474, T47-D, and AG11132A cell lines, six wells were used for each concentration, and each experiment was performed at least twice.
# as §1
# Effect of RO 48-8071 on breast cancer cell line T47-D viability. […] The culture mediums employed 10% FBS DMEM/F12 for culture and 5% FBS DMEM/F12 for treatment.
# [4] = test system: PC-3 human prostate cancer xenograft; test: PC-3 prostate tumor xenograft in nude mice
# Experimental: Male athymic nu/nu nude mice, 6 weeks-old (21-25 g) were purchased from Harlan Laboratories, Inc. Human prostate cancer PC-3 cells, […] in 0.15 ml solution mixed with matrigel and DMEM/F12 medium (1/1, v/v) were injected into each flank of mouse subcutaneously, and both flanks of each mouse were injected. When tumor volume reached around 100 mm3, animals were randomly assigned to three groups and the treatment started with Ro 48-8071 (5 mg/kg/day or 20 mg/kg/day) via tail-vein injection for five days, followed by same treatment every other day for seven additional times as shown in the FIG. 14A. Animals in control group received the vehicle alone under identical conditions.
# [5] = 24 hours, read-out: IC50 (μM) (24 hours)
# [6] = 48 hours, read-out: IC50 (μM) (48 hours)
structure (smiles),measurement,setting,value
"C=CCN(C)CCCCCCOc1ccc(C(=O)c2ccc(Br)cc2)c(F)c1 [Ro 48-8071, 4′-[6-(Allylmethylamino)hexyloxy]-4-bromo-2′-fluorobenzophenone fumarate]",IC50,[1]; [5],11 ± 0.289 µM
same,IC50,[1]; [6],7.63 ± 0.304 µM
same,IC50,DLD-1 colon cancer cells; [5],11.5 ± 0.243 µM
same,IC50,DLD-1 colon cancer cells; [6],6.92 ± 0.41 µM
same,IC50,A549 lung cancer cells; [5],13.5 ± 0.928 µM
same,IC50,A549 lung cancer cells; [6],9.26 ± 0.454 µM
same,IC50,[2]; [5],18.3 ± 0.639 µM
same,IC50,[2]; [6],12.7 ± 0.521 µM
same,effect on cell viability (SRB),"[3]; 24 hours, dose-dependent, FIG. 2B",significantly inhibit the viability
same,IC50,[3]; [5],11.5 ± 0.358 µM
same,IC50,[3]; [6],7.76 ± 0.293 µM
same,tumor volume versus control group,"[4]; 5 or 20 mg/kg/day, tail-vein injection, P<0.05 ANOVA, FIG. 14A",Significant differences compared with control group
same,toxicity at doses used for inhibiting tumor growth,[4]; PC-3 tumor-bearing nude mice,non-toxic
same,"animal weight, control versus treated groups","[4]; PC-3 tumor-bearing nude mice, FIG. 14B",No significant difference
